Source: patent US7282608B2, “Inhibitors of histone deacetylase” (Methylgene, Inc., priority 2002, dated 2007)
Where two headings read alike, the source gives them in different places.

How the values were obtained:
HCT116 cells = test: MTT assay; assay type: cell-based; conditions: Homo sapiens, HCT-116, 72 hours
Procedure: HCT116 cells (2000/well) were plated into 96-well tissue culture plates one day before compound treatment. Compounds at various concentrations were added to the cells. The cells were incubated for 72 hours at 37° C. in 5% CO2 incubator. MTT (3-[4,5-dimethylthiazol-2-yl]-2,5 diphenyl tetrazolium bromide, Sigma) was added at a final concentration of 0.5 mg/ml and incubated with the cells for 4 hours before one volume of solubilization buffer (50% N,N-dimethylformamide, 20% SDS, pH 4.7) was added onto the cultured cells. After overnight incubation, solubilized dye was quantified by colorimetric reading at […] using a reference at […] using an MR700 plate reader (Dynatech Laboratories Inc.). OD values were converted to cell numbers according to a standard growth curve of the relevant cell line. The concentration which reduces cell numbers to 50% of that of solvent treated cells is determined as MTT IC50. IC50 values for representative compounds are presented in the fourth column of Tables 7–10.

[1] = target: T1, cloned recombinant human HDAC-1 (Homo sapiens, UniProt Q13547); test: Human HDAC-1 Assay 1: [3H]-acetylated histone deacetylase assay; assay type: biochemical; conditions: Assay 1, unbracketed data; [3H]-acetylated histone substrate, 10 min at 37° C.
T1 construct: made in house; host or cells: Baculovirus insect cell expression system
Procedure: HDAC inhibitors were screened against a cloned recombinant human HDAC-1 enzyme expressed and purified from a Baculovirus insect cell expression system. For deacetylase assays, 20,000 cpm of the [^3H]-metabolically labeled acetylated histone substrate (M. Yoshida et al., J. Biol. Chem. 265(28): 17174–17179 (1990)) was incubated with 30 μg of the cloned recombinant hHDAC-1 for 10 minutes at 37° C. The reaction was stopped by adding acetic acid (0.04 M, final concentration) and HCl (250 mM, final concentration). […] For inhibition studies, the enzyme was preincubated with compounds at 4° C. for 30 minutes prior to initiation of the enzymatic assay. IC50 values for HDAC enzyme inhibitors were determined by performing dose response curves with individual compounds and determining the concentration of inhibitor producing fifty percent of the maximal inhibition. IC50 values for representative compounds assayed using this procedure are presented in the third column of Tables 7–10 (excepting bracketed data).

[2] = system: acetylated histone H-4 in T24 human bladder cancer cells; test: Histone H4 acetylation in whole cells by immunoblots; assay type: cell-based; conditions: 16 h, read-out: H4 Ac (T24) EC50
Procedure: T24 human bladder cancer cells growing in culture were incubated with HDAC inhibitors for 16 h. Histones were extracted from the cells after the culture period as described by M. Yoshida et al. (J. Biol. Chem. 265(28): 17174–17179 (1990)). […] of total histone protein was loaded onto SDS/PAGE and transferred to nitrocellulose membranes. Membranes were probed with polyclonal antibodies specific for acetylated histone H-4 (Upstate Biotech Inc.), followed by horse radish peroxidase conjugated secondary antibodies (Sigma). Enhanced Chemiluminescence (ECL) (Amersham) detection was performed using Kodak films (Eastman Kodak). Acetylated H-4 signal was quantified by densitometry. Representative data are presented in the fifth column of Table 7–10. Data are presented as the concentration effective for […] the acetylated H-4 signal by 50% (EC50).

T1 sequence (Q13547 whole entry): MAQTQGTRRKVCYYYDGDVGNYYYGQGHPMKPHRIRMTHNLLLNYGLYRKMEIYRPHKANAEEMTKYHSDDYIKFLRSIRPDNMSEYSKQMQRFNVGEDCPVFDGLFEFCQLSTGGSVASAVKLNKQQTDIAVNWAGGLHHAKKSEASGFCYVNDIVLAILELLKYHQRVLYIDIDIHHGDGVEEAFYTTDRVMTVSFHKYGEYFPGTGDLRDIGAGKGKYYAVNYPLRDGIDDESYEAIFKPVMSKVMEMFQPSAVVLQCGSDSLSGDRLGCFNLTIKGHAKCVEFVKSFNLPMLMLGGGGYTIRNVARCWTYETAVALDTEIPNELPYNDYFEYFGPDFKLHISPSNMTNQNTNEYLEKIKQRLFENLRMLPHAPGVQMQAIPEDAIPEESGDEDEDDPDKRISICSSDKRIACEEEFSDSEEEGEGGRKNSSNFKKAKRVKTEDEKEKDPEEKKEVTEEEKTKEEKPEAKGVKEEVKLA

| SMILES | IC50 (HCT116 cells) | IC50 [1] | EC50 ([2]; immunoblot densitometry) | EC50 ([2]; code 9999 of the footnote) |
| --- | --- | --- | --- | --- |
| Nc1ccccc1NC(=O)c1ccc(/C=C/C(=O)N2CCCC2c2cccnc2)cc1 (racemic) [Vl, (rac)-N-(2-Amino-phenyl)-4-[3-oxo-3-(2-pyridin-3-yl-pyrrolidin-1-yl)-propenyl]-benzamide] | 4 µM | 12 µM | – | – |
| Nc1ccccc1NC(=O)c1ccc(C(=O)/C=C/c2cccnc2)cc1 [Ib, N-(2-Amino-phenyl)-4-(3-pyridin-3-yl-acryloyl)-benzamide] | 0.9 µM | 2 µM | 5 µM | – |
| COc1cc(/C=C/C(=O)c2ccc(C(=O)Nc3ccccc3N)cc2)cc(OC)c1OC [Id, N-(2-Amino-phenyl)-4-[3-(3,4,5-trimethoxy-phenyl)-acryloyl]-benzamide] | 0.6 µM | 3 µM | 3 µM | – |
| Nc1ccccc1NC(=O)c1ccc(C(=O)/C=C/c2ccc(OC(F)F)c(OC3CC3)c2)cc1 [Ig, N-(2-Amino-phenyl)-4-[3-(3-cyclopropoxy-4-difluoromethoxy-phenyl)-acryloyl]-benzamide] | 0.7 µM | 3 µM | – | > 25 µM |
| Nc1ccccc1NC(=O)c1ccc(C(=O)/C=C/c2ccc(C(F)(F)F)cc2)cc1 [Ih, N-(2-Amino-phenyl)-4-[3-(4-trifluoromethyl-phenyl)-acryloyl]-benzamide] | 1 µM | 5 µM | 5 µM | – |
| COc1cc(CNC(=O)/C=C/c2ccc(C(=O)Nc3ccccc3N)cc2)cc(OC)c1OC [Vc, N-(2-Amino-phenyl)-4-[2-(3,4,5-trimethoxy-benzylcarbamoyl)-vinyl]-benzamide] | 0.9 µM | 3 µM | 2 µM | – |
| Nc1ccccc1NC(=O)c1ccc(/C=C/C(=O)N2CCOCC2)cc1 [Ve, N-(2-Amino-phenyl)-4-(3-morpholin-4-yl-3-oxo-propenyl)-benzamide] | 6 µM | 20 µM | – | – |
| Nc1ccccc1NC(=O)c1ccc(/C=C/C(=O)OCc2cccnc2)cc1 [Vg, Pyridin-3-ylmethyl 3-[4-(2-amino-phenylcarbamoyl)-phenyl]-acrylic ester] | 5 µM | 10 µM | – | – |
| Nc1ccccc1NC(=O)c1ccc(/C=C/C(=O)NC2Cc3ccccc3C2)cc1 [Vh, N-(2-Amino-phenyl)-4-[2-(indan-2-ylcarbamoyl)-vinyl]-benzamide] | 1 µM | 3 µM | 10 µM | – |
| Nc1ccccc1NC(=O)c1ccc(/C=C/C(=O)NCCc2ccccn2)cc1 [Vi, N-(2-Amino-phenyl)-4-[2-(2-pyridin-2-yl-ethylcarbamoyl)-vinyl]-benzamide] | 1 µM | 4 µM | 3 µM | – |
| COc1ccc(C2CCN(C(=O)/C=C/c3ccc(C(=O)Nc4ccccc4N)cc3)CC2)cc1OC [Vk, N-(2-Amino-phenyl)-4-{3-[4-(3,4-dimethoxy-phenyl)-piperidin-1-yl]-3-oxo-propenyl}-benzamide] | 2 µM | 13 µM | – | – |
| N#CCCN(Cc1cccnc1)C(=O)/C=C/c1ccc(C(=O)Nc2ccccc2N)cc1 [Vn, N-(2-Amino-phenyl)-4-{2-[(2-cyano-ethyl)-pyridin-3-ylmethyl-carbamoyl]-vinyl}-benzamide] | 3 µM | 7 µM | – | – |
| Nc1ccccc1NC(=O)c1ccc(/C=C/C(=O)N(Cc2cccnc2)Cc2cccnc2)cc1 [Vo, N-(2-Amino-phenyl)-4-[2-(bis-pyridin-3-ylmethyl-carbamoyl)-vinyl]-benzamide] | 4 µM | 15 µM | – | – |
| Nc1ccccc1NC(=O)c1ccc(/C=C/C(=O)N[C@H]2c3ccccc3C[C@H]2O)cc1 [Vp, (−)-(1S,2R)-N-(2-Amino-phenyl)-4-[2-(2-hydroxy-indan-1-ylcarbamoyl)-vinyl]-benzamide] | 2 µM | 13 µM | – | – |
| Cc1ccc(S(=O)(=O)NC/C=C/c2ccc(C(=O)Nc3ccccc3N)cc2)cc1 [XVg, N-(2-Amino-phenyl)-4-[3-(4-tolyl-sulfonylamino)-propenyl]-benzamide] | 5 µM | 12 µM | – | – |
| Nc1ccccc1NC(=O)c1ccc(CCCc2ccccc2)cc1 [XXIXa, N-(2-Amino-phenyl)-4-(3-phenyl-propyl)-benzamide] | 0.6 µM | 2 µM | – | – |

The remaining compounds from weak to strong by IC50 (HCT116 cells), led by results:

| IC50 (HCT116 cells) | IC50 [1] | EC50 ([2]; immunoblot densitometry) | EC50 ([2]; code 9999 of the footnote) | SMILES |
| --- | --- | --- | --- | --- |
| 9 µM | 6 µM | – | – | Nc1ccccc1NC(=O)c1ccc(C(=O)/C=C/c2ccc(Cl)cc2)cc1 [Ie, N-(2-Amino-phenyl)-4-[3-(4-chloro-phenyl)-acryloyl]-benzamide] |
| 6 µM | 11 µM | – | – | Nc1ccccc1NC(=O)c1ccc(/C=C/C(=O)N2CCN(c3ccccn3)CC2)cc1 [Vm, N-(2-Amino-phenyl)-4-[3-oxo-3-(4-pyridin-2-yl-piperazin-1-yl)-propenyl]-benzamide] |
| 5 µM | 4 µM | – | – | COc1cc(OC)c(/C=C/C(=O)c2ccc(C(=O)Nc3ccccc3N)cc2)c(OC)c1 [If, N-(2-Amino-phenyl)-4-[3-(2,4,6-trimethoxy-phenyl)-acryloyl]-benzamide] |
| 3 µM | 5 µM | – | – | COc1cc(NC(=O)/C=C/c2ccc(C(=O)Nc3ccccc3N)cc2)cc(OC)c1OC [Va, N-(2-Amino-phenyl)-4-[2-(3,4,5-trimethoxy-phenylcarbamoyl)-vinyl]-benzamide] |
| 3 µM | 3 µM | – | – | CC(C)(C)OC(=O)N(C/C=C/c1ccc(C(=O)Nc2ccccc2N)cc1)Cc1cccnc1 [XXIIh, t-Butyl {3-[4-(2-amino-phenylcarbamoyl)-phenyl]-ally}-pyridin-3-ylmethyl-carbamate] |
| 1 µM | 5 µM | – | – | Nc1ccccc1NC(=O)c1ccc(C(=O)/C=C/c2ccc(Cl)c(Cl)c2)cc1 [Ia, N-(2-Amino-phenyl)-4-[3-(3,4-dichloro-phenyl)-acryloyl]-benzamide] |
| 1 µM | 3 µM | 3 µM | – | Nc1ccccc1NC(=O)c1ccc(C(=O)/C=C/c2cc(F)ccc2F)cc1 [Ii, N-(2-Amino-phenyl)-4-[3-(2,5-difluoro-phenyl)-acryloyl]-benzamide] |
| 0.7 µM | 4 µM | 5 µM | – | COc1ccc(/C=C/C(=O)c2ccc(C(=O)Nc3ccccc3N)cc2)cc1OC1CCCC1 [Ij, N-(2-Amino-phenyl)-4-[3-(3-cyclopentyloxy-4-methoxy-phenyl)-acryloyl]-benzamide] |
| 0.4 µM | 3 µM | – | > 25 µM | Nc1ccccc1NC(=O)c1ccc(C(=O)/C=C/c2c(Cl)cccc2Cl)cc1 [Ic, N-(2-Amino-phenyl)-4-[3-(2,6-dichloro-phenyl)-acryloyl]benzamide] |
| 0.4 µM | 1 µM | 1 µM | – | Nc1ccccc1NC(=O)c1ccc(/C=C/C(=O)NCCOc2ccccc2)cc1 [Vd, N-(2-Amino-phenyl)-4-[2-(2-phenoxy-ethylcarbamoyl)-vinyl]-benzamide] |
| 0.3 µM | 5 µM | 1 µM | – | Nc1ccccc1NC(=O)c1ccc(/C=C/C(=O)NCCc2cccnc2)cc1 [Vf, N-(2-Amino-phenyl)-4-[2-(2-pyridin-3-yl-ethylcarbamoyl)-vinyl]-benzamide] |
| 0.07 µM | 3 µM | 1 µM | – | Nc1ccccc1NC(=O)c1ccc(/C=C/C(=O)NCc2cccnc2)cc1 [Vb, N-(2-Amino-phenyl)-4-{2-[(pyridin-3-ylmethyl)-carbamoyl]-vinyl}-benzamide] |
